According to US7524495B2, “Inhibition of TACE or amphiregulin for the modulation of EGF receptor signal transactivation” (Max-Planck-Gesellschaft zur Foerderung der Wissenschaften …, priority 2003, dated 2009):

Legend:
proHB-EGF = assay: Flow cytometric analysis of proHB-EGF ectodomain cleavage; format: cell-based, human; conditions: HNSCC cells; data not shown
Description: (§1) ACS analysis was performed as described before (1). Cells were stained with ectodomain-specific antibodies against HB-EGF, AR (R&D Systems) or TGFa (Oncogene, Boston; Mass.). After washing with PBS, cells were incubated with FITC-conjugated secondary antibody and analyzed on a Becton Dickinson FACScalibur flow cytometer.

proAR = assay: Flow cytometric analysis of cell surface proAR (proAR shedding); format: cell-based, human; conditions: for cell surface content of endogenous proAR after agonist treatment: head and neck cancer cells, LPA 10 μM
Description: (§2) FIG. 1 GPCR stimulation of the EGFR Involves a ligand-dependent mechanism and is accompanied by AR release from the cell surface. a, EGFR signal transactivation requires metalloprotease activity and the EGFR extracellular domain. SCC-9 cells were pre-incubated with marimastat (BB2516, 10 μM; 20 min), anti-EGFR antibody ICR-3R (20 μg/mL; 60 min) or PTX (100 ng/mL; 18 h) and treated with LPA (10 μM), carbachol (Car, 1 mM), EGF (7.5 ng/mL) or pervanadate (PV, 1 mM) for 3 min. Following immunoprecipitation (IP) of cell extracts with anti-EGFR antibody proteins were immunoblotted (IB) with anti-phosphotyrosine antibody and re-probed with anti-EGFR antibody. b, Flow cytometric analysis of EGF-like precursor expression. SCC-9 cells were collected and stained for surface HB-EGF, TGFa or AR and analyzed by flow cytometry. Control cells were labelled with FITC-conjugated secondary antibody alone. c, LPA-induced proteolytic processing of proAR. SCC-9 cells were pre-incubated with batimastat (BB94, 10 μM) or PTX and stimulated with LPA or TPA (1 μM) for 5 min. Cells were collected and analyzed for cell surface AR density by flow cytometry. d, GPCR-induced proteolytic release of AR. SCC-9 cells were pre-incubated with batimastat or vehicle followed by stimulation with agonists as indicated for 120 min. Conditioned medium was collected and analyzed for total AR amount by ELISA. Each bar is the average of triplicate values (mean±s.d.). *, P<0.03 for the difference between agonists vs. BB94+agonists.
as §1

proTGFα = assay: Flow cytometric analysis of proTGFα ectodomain cleavage; format: cell-based, human; conditions: HNSCC cells; data not shown
Description: as §1

amphiregulin (AR) = assay: AR release into cell culture medium (sandwich ELISA); format: cell-based, human; conditions: SCC-9 cells; compared to LPA stimulation
Description: as §2, with “SCC-9 cells were pre-incubated with batimastat (BB94, 10 μM) or PTX and stimulated with LPA or TPA (1 μM) for 5 min.” left out, “SCC-9 cells were pre-incubated with batimastat or vehicle followed by stimulation with agonists as indicated for 120 min.” left out, “Each bar is the average of triplicate values (mean±s.d.). *, P<0.03 for the difference between agonists vs. BB94+agonists.” left out
Concentrations of free AR were determined by sandwich ELISA (R&D Systems) using monoclonal anti-AR capture antibody and biotinylated polyclonal detection antibody. […] Values are expressed as mean±s.d. of at least triplicate samples. […]

EGFR = EGFR tyrosine phosphorylation / EGFR signal transactivation (IP with anti-EGFR, anti-phosphotyrosine immunoblot); format: cell-based, human; conditions: for GPCR-induced EGFR tyrosine phosphorylation (EGFR transactivation signal): SCC-9 cells, stimulation with LPA or carbachol
Description: as §2
FIG. 2 GPCR stimulation requires AR to trigger EGFR-dependent signals and biological responses. a, Blockade of EGF-like growth factor precursor expression by RNA interference (RNAi). SCC-9 cells were transfected with siRNA for proAR, proHB-EGF or proTGFα cultured for 2 days and analyzed for gene expression by RT-PCR as indicated or b, stimulated with LPA or carbachol and assayed for EGFR tyrosine phosphorylation content. c, Requirement of AR for LPA-induced cell migration. SIRNA-transfected SCC-9 cells were analyzed for transwell migration toward fibronectin as chemoattractant. Each bar is the average of quadruplicate values (mean±s.d.). *, P<0.001 for control siRNA+LPA vs. proAR siRNA+LPA. d, Effect of anti-AR neutralizing antibody and heparin on GPCR-induced EGFR and SHC tyrosine phosphorylation. […] Phosphorylated ERK1/2 was detected by immunoblotting total lysates with anti-phospho-ERK antibody. […] Quantitative analysis of ERK phosphorylation from three independent experiments (mean±s.d.). *, P<0.05 for the difference between LPA vs. inhibitors+LPA. […] Cells were then pulse-labelled with ^3H-thymidine and thymidine incorporation was measured by liquid-scintillation counting. Quantitative analysis from three independent experiments (mean±s.d.). *, P<0.001 for LPA vs. inhibitors+LPA. […]

SCC-15 cells = assay: 3H-thymidine incorporation assay (DNA synthesis); format: cell-based, human; conditions: 18 h
From the text: (§3) FIG. 2 GPCR stimulation requires AR to trigger EGFR-dependent signals and biological responses. a, Blockade of EGF-like growth factor precursor expression by RNA interference (RNAi). SCC-9 cells were transfected with siRNA for proAR, proHB-EGF or proTGFα cultured for 2 days and analyzed for gene expression by RT-PCR as indicated or b, stimulated with LPA or carbachol and assayed for EGFR tyrosine phosphorylation content. c, Requirement of AR for LPA-induced cell migration. SIRNA-transfected SCC-9 cells were analyzed for transwell migration toward fibronectin as chemoattractant. […] Phosphorylated ERK1/2 was detected by immunoblotting total lysates with anti-phospho-ERK antibody. […] Quantitative analysis of ERK phosphorylation from three independent experiments (mean±s.d.). *, P<0.05 for the difference between LPA vs. inhibitors+LPA. […] Cells were then pulse-labelled with ^3H-thymidine and thymidine incorporation was measured by liquid-scintillation counting. Quantitative analysis from three independent experiments (mean±s.d.). *, P<0.001 for LPA vs. inhibitors+LPA.
For the ^3H-thymidine incorporation assay (5), SCC-15 cells were seeded into 12-well plates at 3×10^4 cells/well. […] After 18 h cells were pulse-labelled with ^3H-thymidine (1 μCi/ml) for 4 h, and thymidine incorporation was measured by trichloroacetic acid precipitation and subsequent liquid-scintillation counting.

TACE = TACE (Homo sapiens, UniProt P78536); conditions: reference (25); cited from earlier work
ERK1/2 = assay: ERK/MAPK activation (anti-phospho-ERK immunoblot); format: cell-based, human; conditions: SCC-9 and SCC-15 cells
From the text: as §3
Cells were lysed and proteins immunoprecipitated as described (13). […] Phosphotyrosine was detected with the 4G10 monoclonal antibody (UBI, Lake Placid, N.Y.). […]

Akt/PKB = Akt/PKB phosphorylation (anti-phospho-Akt immunoblot); format: cell-based, human; conditions: head and neck cancer cells

TACE, sequence (P78536 215-824): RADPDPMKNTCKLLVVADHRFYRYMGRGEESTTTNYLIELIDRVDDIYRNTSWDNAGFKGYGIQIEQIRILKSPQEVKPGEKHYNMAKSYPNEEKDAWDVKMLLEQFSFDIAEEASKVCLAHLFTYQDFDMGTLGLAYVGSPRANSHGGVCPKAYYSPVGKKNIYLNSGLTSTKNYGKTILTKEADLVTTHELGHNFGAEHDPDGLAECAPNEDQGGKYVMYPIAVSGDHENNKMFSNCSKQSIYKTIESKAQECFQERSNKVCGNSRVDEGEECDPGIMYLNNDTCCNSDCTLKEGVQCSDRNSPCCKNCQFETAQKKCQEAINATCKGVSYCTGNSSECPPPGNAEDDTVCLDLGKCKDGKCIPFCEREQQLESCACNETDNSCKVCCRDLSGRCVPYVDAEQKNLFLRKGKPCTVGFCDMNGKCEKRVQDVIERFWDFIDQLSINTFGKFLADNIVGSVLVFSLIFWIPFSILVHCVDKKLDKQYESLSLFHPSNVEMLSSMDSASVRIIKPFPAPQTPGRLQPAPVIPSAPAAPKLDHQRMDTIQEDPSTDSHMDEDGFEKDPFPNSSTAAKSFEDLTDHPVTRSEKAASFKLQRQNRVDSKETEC

For `CCCCCCCCCCCCCC(=O)O[C@@H]1[C@@H](C)[C@@]2(O)[C@@H](C=C(CO)C[C@]3(O)C(=O)C(C)=C[C@@H]23)[C@@H]2C(C)(C)[C@]12OC(C)=O` [TPA], the “proteolytic (ectodomain) cleavage of proHB-EGF by agonist” value (proHB-EGF) was “resulted in ectodomain cleavage”, the “cell surface content of endogenous proAR after agonist treatment” value (proAR; TPA 1 µM as printed) was “reduced” and the “proteolytic (ectodomain) cleavage of proTGFα by agonist” value (proTGFα) was “resulted in ectodomain cleavage”.

In the case of `C[N+](C)(C)CCOC(N)=O` [carbachol], the “AR release in response to agonist” value (amphiregulin (AR)) is reported as “substantially lower compared to LPA stimulation”.

With `CNC(=O)[C@@H](NC(=O)[C@H](CC(C)C)[C@H](O)C(=O)NO)C(C)(C)C` [marimastat] the “GPCR-induced EGFR tyrosine phosphorylation (EGFR transactivation signal)” value (EGFR) was “sensitive”.

In the case of `COc1cc2ncnc(Nc3cccc(Cl)c3)c2cc1OC` [tyrphostin AG1478], the “DNA synthesis triggered by LPA” value (SCC-15 cells) is reported as “decreased DNA synthesis by LPA to below basal level”.

For “Timp-1: human Timp-1; ectopic expression by retroviral transduction”, the “GPCR-induced EGFR tyrosine phosphorylation (EGFR transactivation signal)” value (EGFR) is given as “not” and the “proteolytic activity of TACE in vitro” value (TACE) is given as “not”.

In the case of heparin, the “LPA-induced EGFR tyrosine phosphorylation (EGFR signal transactivation)” value (EGFR; LPA 10 μM, 3 min, SCC-9 (anti-AR also SCC-4, SCC-15, SCC-25)) is reported as “completely blocked” and the “LPA-induced ERK activation” value (ERK1/2) is reported as “prevented”.

In the case of lysophosphatidic acid [LPA], the “proteolytic (ectodomain) cleavage of proHB-EGF by agonist” value (proHB-EGF) is reported as “not able to induce”, the “phosphorylation of Akt/PKB at Ser-473 by agonist” value (Akt/PKB) is reported as “markedly increased” and the “cell surface content of endogenous proAR after agonist treatment” value (proAR; TPA 1 µM) is reported as “reduced”. The “proteolytic (ectodomain) cleavage of proTGFα by agonist” value (proTGFα) was “not able to induce”.

With pertussis toxin [PTX] the “LPA-induced ectodomain cleavage (shedding) of proAR” value (proAR; SCC-9 cells, batimastat 10 μM, PTX 100 ng/mL) was “partially inhibited”.

B1: Timp-3: tissue inhibitor of metalloprotease-3; ectopic expression by retroviral transduction (protein)
chain: CTCSPSHPQDAFCNSDIVIRAKVVGKKLVKEGPFGTLVYTIKQMKMYRGFTKMPHVQYIHTEASESLCGLKLEVNKYQYLLTGRVYDGKMYTGLCNFVERWDQLTLSQRKGLNYRYHLGCNCKIKSCYYLPCFVTSKNECLWTDMLSNFGYPGYQSKHYACIRQKGGYCSWYRGWAPPDKSIINATDP
modifications: left off: small tags and cut ends
notes: ectopic expression by retroviral transduction
For B1, the “GPCR-induced EGFR tyrosine phosphorylation (EGFR transactivation signal)” value (EGFR) is given as “inhibited” and the “proteolytic activity of TACE in vitro” value (TACE) is given as “inhibited”.
